# In patent US20120016009A1, “Optimized Methods For Delivery Of DSRNA Targeting The PCSK9 Gene” (priority 2008, published 2012):
# In the oligonucleotide strings, read from the 5' end, every base follows the letter of its sugar. An asterisk marks phosphorothioate; unmarked linkages are phosphodiester. Other units and linkages are bracketed, terminal groups are in braces. A string of capitals states the bases alone. d = 2'-deoxy (DNA); m = 2'-O-methyl; r = 2'-OH (RNA)
# Test system: PCSK9 mRNA
# Assay: PCSK9 siRNA screening in HepG2 cells (lipofectamine 2000 transfection, PCSK9 mRNA by Quantigene, normalized to GAP-DH)
# Type: cell-based, human
# Conditions: for Mean percent remaining mRNA transcript at siRNA concentration/in cell type 30 nM/HepG2: 30 nM siRNA; for Mean percent remaining mRNA transcript at siRNA concentration/in cell type 100 nM/HepG2: 100 nM siRNA; for Mean percent remaining mRNA transcript at siRNA concentration/in cell type 3 nM/HepG2: 3 nM siRNA
# In short: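 HepG2 cells, grown in MEM with 10% fetal calf serum, antibiotics, non-essential amino acids and sodium pyruvate at 37° C. and 5% CO2, were plated at 2.0×10^4 cells/well in 96-well plates and transfected directly with siRNA using lipofectamine 2000. After 24 hours, cells were lysed and PCSK9 mRNA was measured by Quantigene and normalized to GAP-DH mRNA.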
Substance,Mean percent remaining mRNA transcript at siRNA concentration/in cell type 30 nM/HepG2,also measured
AD-9621: PCSK9 siRNA (sense rUrCrUrGrGrArUrGrGrCrArUrCrUrArGrCrCrAdT*dT; antisense rUrGrGrCrUrArGrArUrGrCrCrArUrCrCrArGrAdT*dT),77%,–
AD-9622: PCSK9 siRNA (sense rCrUrGrUrCrCrCrUrCrCrUrUrGrArGrCrArCrCdT*dT; antisense rGrGrUrGrCrUrCrArArGrGrArGrGrGrArCrArGdT*dT),94%,–
AD-9623: PCSK9 siRNA (sense rGrUrCrArGrCrUrCrCrArGrGrCrGrGrUrCrCrUdT*dT; antisense rArGrGrArCrCrGrCrCrUrGrGrArGrCrUrGrArCdT*dT),66%,Mean percent remaining mRNA transcript at siRNA concentration/in cell type 100 nM/HepG2: 43%
AD-9624: PCSK9 siRNA (sense rCrGrUrCrArGrCrUrCrCrArGrGrCrGrGrUrCrCdT*dT; antisense rGrGrArCrCrGrCrCrUrGrGrArGrCrUrGrArCrGdT*dT),94%,–
AD-9625: PCSK9 siRNA (sense rCrUrGrGrUrGrGrArGrGrUrGrUrArUrCrUrCrCdT*dT; antisense rGrGrArGrArUrArCrArCrCrUrCrCrArCrCrArGdT*dT),88%,Mean percent remaining mRNA transcript at siRNA concentration/in cell type 100 nM/HepG2: 58%
AD-9626: PCSK9 siRNA (sense rUrGrArArGrArUrArUrUrUrArUrUrCrUrGrGrGdT*dT; antisense rCrCrCrArGrArArUrArArArUrArUrCrUrUrCrAdT*dT),97%,Mean percent remaining mRNA transcript at siRNA concentration/in cell type 3 nM/HepG2: 68%
AD-9627: PCSK9 siRNA (sense rArGrArGrArCrUrGrArUrCrCrArCrUrUrCrUrCdT*dT; antisense rGrArGrArArGrUrGrGrArUrCrArGrUrCrUrCrUdT*dT),69%,–
AD-9628: PCSK9 siRNA (sense rUrUrCrUrCrUrGrCrCrArArArGrArUrGrUrCrAdT*dT; antisense rUrGrArCrArUrCrUrUrUrGrGrCrArGrArGrArAdT*dT),141%,–
AD-9629: PCSK9 siRNA (sense rUrCrUrGrGrGrUrUrUrUrGrUrArGrCrArUrUrUdT*dT; antisense rArArArUrGrCrUrArCrArArArArCrCrCrArGrAdT*dT),23%,Mean percent remaining mRNA transcript at siRNA concentration/in cell type 3 nM/HepG2: 24%
AD-9630: PCSK9 siRNA (sense rGrGrGrCrArGrGrGrUrCrArUrGrGrUrCrArCrCdT*dT; antisense rGrGrUrGrArCrCrArUrGrArCrCrCrUrGrCrCrCdT*dT),82%,–
AD-9631: PCSK9 siRNA (sense rCrUrCrUrGrCrCrArArArGrArUrGrUrCrArUrCdT*dT; antisense rGrArUrGrArCrArUrCrUrUrUrGrGrCrArGrArGdT*dT),80%,–
AD-9632: PCSK9 siRNA (sense rCrArArCrUrUrUrGrGrCrCrGrCrUrGrUrGrUrGdT*dT; antisense rCrArCrArCrArGrCrGrGrCrCrArArArGrUrUrGdT*dT),34%,–
AD-9633: PCSK9 siRNA (sense rUrGrGrUrCrArCrCrGrCrUrGrCrCrGrGrCrArAdT*dT; antisense rUrUrGrCrCrGrGrCrArGrCrGrGrUrGrArCrCrAdT*dT),75%,Mean percent remaining mRNA transcript at siRNA concentration/in cell type 100 nM/HepG2: 56%
AD-9634: PCSK9 siRNA (sense rCrUrCrUrGrUrUrGrCrCrUrUrUrUrUrArCrArGdT*dT; antisense rCrUrGrUrArArArArArGrGrCrArArCrArGrArGdT*dT),29%,Mean percent remaining mRNA transcript at siRNA concentration/in cell type 3 nM/HepG2: 30%
AD-9635: PCSK9 siRNA (sense rGrUrCrUrGrCrCrGrArGrCrCrGrGrArGrCrUrCdT*dT; antisense rGrArGrCrUrCrCrGrGrCrUrCrGrGrCrArGrArCdT*dT),90%,Mean percent remaining mRNA transcript at siRNA concentration/in cell type 100 nM/HepG2: 73%
AD-9636: PCSK9 siRNA (sense rCrArUrArCrArGrArGrUrGrArCrCrArCrCrGrGdT*dT; antisense rCrCrGrGrUrGrGrUrCrArCrUrCrUrGrUrArUrGdT*dT),42%,IC50: 2.1 nM; Mean percent remaining mRNA transcript at siRNA concentration/in cell type 3 nM/HepG2: 41%
AD-9637: PCSK9 siRNA (sense rGrArGrGrGrCrArGrGrGrUrCrArUrGrGrUrCrAdT*dT; antisense rUrGrArCrCrArUrGrArCrCrCrUrGrCrCrCrUrCdT*dT),83%,Mean percent remaining mRNA transcript at siRNA concentration/in cell type 100 nM/HepG2: 56%

Substance,Mean percent remaining mRNA transcript at siRNA concentration/in cell type 30 nM/HepG2,also measured
AD-9638: PCSK9 siRNA (sense rCrUrGrGrArGrUrUrUrArUrUrCrGrGrArArArAdT*dT; antisense rUrUrUrUrCrCrGrArArUrArArArCrUrCrCrArGdT*dT),101%,–
AD-9639: PCSK9 siRNA (sense rGrUrGrCrUrGrArGrGrCrCrArCrGrArGrGrUrCdT*dT; antisense rGrArCrCrUrCrGrUrGrGrCrCrUrCrArGrCrArCdT*dT),30%,Mean percent remaining mRNA transcript at siRNA concentration/in cell type 3 nM/HepG2: 35%
AD-9640: PCSK9 siRNA (sense rGmUrAmCmCrGrGrGmCrGrGrAmUrGrArAmUrAmCdT*dT; antisense rGmUrArUrUmCrArUrCrCrGrCrCrCrGrGmUrArCdT*dT),89%,–
AD-9641: PCSK9 siRNA (sense rGrGmUrAmCmCrGrGrGmCrGrGrAmUrGrArAmUrAdT*dT; antisense mUrArUrUmCrArUrCrCrGrCrCrCrGrGmUrArCrCdT*dT),92%,–
AD-9642: PCSK9 siRNA (sense mUrGmUrAmUmCmUmCmCmUrArGrAmCrAmCmCrArGdT*dT; antisense rCrUrGrGrUrGrUrCmUrArGrGrArGrAmUrAmCrAdT*dT),105%,–
"AD-9643: PCSK9 siRNA (sense GGAGGuGuAucuccuAGAcTsT; antisense GUCuAGGAGAuAcACCUCCTsT; as printed in the source, key not given here)",40%,–
AD-9645: PCSK9 siRNA (sense mCmCmCrArGmCmCrArGrGrAmUmUmCmCrGmCrGmCdT*dT; antisense rGrCrGrCrGrGrArArUrCrCrUrGrGrCrUrGrGrGdT*dT),66%,–
AD-9646: PCSK9 siRNA (sense mCmUrGrGmUrGmCmUrArGmCmCmUmUrGmCrGmUmUdT*dT; antisense rArArCrGmCrArArGrGrCmUrArGmCrArCmCrArGdT*dT),97%,Mean percent remaining mRNA transcript at siRNA concentration/in cell type 3 nM/HepG2: 108%
AD-9647: PCSK9 siRNA (sense mCmUmCmCmUrArGrAmCrAmCmCrArGmCrAmUrAmCdT*dT; antisense rGmUrArUrGrCrUrGrGrUrGrUrCmUrArGrGrArGdT*dT),62%,–
AD-9648: PCSK9 siRNA (sense rArArGrGrArGmCrAmUrGrGrArAmUmCmCmCrGrGdT*dT; antisense rCrCrGrGrGrArUrUrCmCrArUrGrCrUrCrCrUrUdT*dT),78%,–
AD-9649: PCSK9 siRNA (sense mCrArGmCmCrArGrGrAmUmUmCmCrGmCrGmCrGmCdT*dT; antisense rGrCrGrCrGrCrGrGrArArUrCrCrUrGrGrCrUrGdT*dT),60%,–
AD-9650: PCSK9 siRNA (sense rGmCmUrGrGmUrGmCmUrArGmCmCmUmUrGmCrGmUdT*dT; antisense rArCrGmCrArArGrGrCmUrArGmCrArCmCrArGrCdT*dT),91%,Mean percent remaining mRNA transcript at siRNA concentration/in cell type 3 nM/HepG2: 90%
AD-9651: PCSK9 siRNA (sense rGrGrArGmUmUmUrAmUmUmCrGrGrArArArArGmCdT*dT; antisense rGrCrUrUrUrUrCrCrGrArAmUrArArArCrUrCrCdT*dT),58%,–
AD-9652: PCSK9 siRNA (sense mUmCmCmCrArGmCmCrArGrGrAmUmUmCmCrGmCrGdT*dT; antisense rCrGrCrGrGrArArUrCrCrUrGrGrCrUrGrGrGrAdT*dT),97%,–
AD-9653: PCSK9 siRNA (sense rGmCmCrArAmCmCmCrGmCmUmCmCrAmCmUrAmCmCdT*dT; antisense rGrGmUrArGrUrGrGrArGrCrGrGrGrUrUrGrGrCdT*dT),86%,–
AD-9654: PCSK9 siRNA (sense mCrGrGmUrAmCmCrGrGrGmCrGrGrAmUrGrArAmUdT*dT; antisense rArUrUmCrArUrCrCrGrCrCrCrGrGmUrArCrCrGdT*dT),107%,–
AD-9655: PCSK9 siRNA (sense rGrGrGrAmUrAmCmCmUmCrAmCmCrArArGrAmUmCdT*dT; antisense rGrArUrCrUrUrGrGrUrGrArGrGmUrArUrCrCrCdT*dT),140%,–
